# What was measured:
# [1] = molecular target: T1, human TDO (TDO-expressing HEK293 cells) (Homo sapiens, UniProt P48775); assay: Cell based kynurenine assay, TDO-expressing HEK293 cell clones; conditions: TDO-expressing HEK293 cells, 24 hours incubation; geometric mean; read-out: HEK293 TDO Kynurenine GMean IC50 (μM) (Cellular Assay)
# T1 construct: expressed in transfected cells
# Method in brief: (§1)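 IC50 values come from nonlinear regression of kynurenine reduction in supernatants of human IDO1- or TDO-expressing HEK293 cells incubated 24 h with serially diluted compounds, normalised to cell and media-only controls containing 0.2% DMSO.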
# [2] = molecular target: T2, human IDO (IDO1-expressing HEK293 cells) (Homo sapiens, UniProt P14902); assay: Cell based kynurenine assay, IDO1-expressing HEK293 cell clones; conditions: IDO1-expressing HEK293 cells, 24 hours incubation; geometric mean; read-out: HEK293 IDO1 Kynurenine GMean IC50 (μM) (Cellular Assay)
# T2 construct: expressed in transfected cells
# T2 sequence (P14902 whole entry): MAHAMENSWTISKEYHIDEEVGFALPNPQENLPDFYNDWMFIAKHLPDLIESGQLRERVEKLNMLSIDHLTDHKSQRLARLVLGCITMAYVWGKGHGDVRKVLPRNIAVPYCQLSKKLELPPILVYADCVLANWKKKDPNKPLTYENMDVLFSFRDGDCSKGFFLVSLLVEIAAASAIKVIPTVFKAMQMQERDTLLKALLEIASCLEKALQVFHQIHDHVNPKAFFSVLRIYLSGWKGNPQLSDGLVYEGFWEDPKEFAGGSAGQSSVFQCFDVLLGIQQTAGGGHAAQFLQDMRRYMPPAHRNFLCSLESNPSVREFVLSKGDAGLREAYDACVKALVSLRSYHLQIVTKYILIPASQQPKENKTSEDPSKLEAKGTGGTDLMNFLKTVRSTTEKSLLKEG
# Method in brief: as §1
# [3] = molecular target: T3, Human Tryptophan 2,3-dioxygenase (TDO) (Homo sapiens, UniProt P48775); assay: Human TDO enzymatic assay (kynurenine level); assay type: biochemical; conditions: 1 nM TDO, 350 μM L-Trp; geometric mean; read-out: TDO GMean: IC50 (μM) (Biochemical Assay)
# T3 construct: His tag (N); made in house; host or cells: E. coli
# T3 sequence (P48775 whole entry): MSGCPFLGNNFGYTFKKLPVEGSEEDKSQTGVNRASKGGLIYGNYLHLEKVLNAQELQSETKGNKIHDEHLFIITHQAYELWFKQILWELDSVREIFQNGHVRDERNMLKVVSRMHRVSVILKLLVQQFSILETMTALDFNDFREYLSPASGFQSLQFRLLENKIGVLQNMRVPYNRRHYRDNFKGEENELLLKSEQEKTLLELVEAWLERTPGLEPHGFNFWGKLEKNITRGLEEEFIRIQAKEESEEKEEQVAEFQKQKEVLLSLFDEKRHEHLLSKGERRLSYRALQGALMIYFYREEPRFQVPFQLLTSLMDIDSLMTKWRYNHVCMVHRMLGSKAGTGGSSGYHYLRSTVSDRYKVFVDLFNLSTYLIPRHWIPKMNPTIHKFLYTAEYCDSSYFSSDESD
# Method in brief: (§2)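 IDO conditions: 6 nM His-IDO, 10 μM L-Trp, 5 μM methylene blue, 20 min, RT. TDO conditions: 1 nM His-TDO, 350 μM L-Trp, 0.4 μM methylene blue, 70 min, RT. Both used pH 6.5 phosphate plus ascorbate/catalase, TCA stop at 50° C, kynurenine readout, nonlinear-regression IC50.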
# [4] = molecular target: T4, Human Indoleamine 2,3-dioxygenase (IDO) (Homo sapiens, UniProt P14902); assay: Human IDO enzymatic assay (kynurenine level); assay type: biochemical; conditions: 6 nM IDO, 10 μM L-Trp; geometric mean; read-out: IDO1 GMean: IC50 (μM) (Biochemical Assay)
# T4 construct: His tag (N); made in house; host or cells: E. coli
# T4 sequence (P14902 whole entry): as the sequence (P14902 whole entry) above
# Method in brief: as §2
# T1 sequence (P48775 whole entry): as the sequence (P48775 whole entry) above
SMILES,IC50 [1] [µM],IC50 [2] [µM],IC50 [3] [µM],IC50 [4] [µM]
"OC(c1cc(Cl)cc2cn[nH]c12)C1(Cc2cccc(F)c2)CCC1 (centres unmarked) [Compound P-0188, (5-chloro-1H-indazol-7-yl)(1-(3-fluorobenzyl)cyclobutyl)methanol]",> 10,0.0001 to 10,0.0001 to 10,0.0001 to 10
"O=S1(=O)CC(O)(c2cc(Cl)cc3cn[nH]c23)C1 [Compound P-0189, 3-(5-chloro-1H-indazol-7-yl)-3-hydroxythietane 1,1-dioxide]",0.0001 to 10,> 10,> 200,> 200
CC1(C)[C@H]2CCC3(CC(O)(c4cc(Cl)cc5cn[nH]c45)C3)[C@@H]1C2 (some centres unmarked) [Compound P-0190],0.0001 to 10,0.0001 to 10,0.0001 to 10,0.0001 to 10
"CC(C)(C1CCOCC1)C(O)c1cc(Cl)cc2cn[nH]c12 (centres unmarked) [Compound P-0191, 1-(5-chloro-1H-indazol-7-yl)-2-methyl-2-(tetrahydro-2H-pyran-4-yl)propan-1-ol]",0.0001 to 10,0.0001 to 10,0.0001 to 10,0.0001 to 10
"OC(c1cc(Cl)cc2cn[nH]c12)C(F)(F)C1CCOCC1 (centres unmarked) [Compound P-0192, 1-(5-chloro-1H-indazol-7-yl)-2,2-difluoro-2-(tetrahydro-2H-pyran-4-yl)ethan-1-ol]",0.0001 to 10,0.0001 to 10,0.0001 to 10,0.0001 to 10
"CC1(C)C2CCC(C2)[C@]12C[C@@](O)(c1cc(Cl)cc3cn[nH]c31)C2 (some centres unmarked) [Compound P-0193, (2s,3′s)-3′-(5-chloro-1H-indazol-7-yl)-3,3-dimethylspiro[bicyclo[2.2.1]heptane-2,1′-cyclobutan]-3′-ol]",0.0001 to 10,0.0001 to 10,0.0001 to 10,0.0001 to 10
"OC(c1cc(Cl)cc2cn[nH]c12)C1(C(F)F)CCC1 (centres unmarked) [Compound P-0194, (5-chloro-1H-indazol-7-yl)(1-(difluoromethyl)cyclobutyl)methanol]",0.0001 to 10,0.0001 to 10,0.0001 to 10,0.0001 to 10
"OC(c1cc(Cl)cc2cn[nH]c12)C1CC2(CCC2)C1 (centres unmarked) [Compound P-0195, (5-chloro-1H-indazol-7-yl)(spiro[3.3]heptan-2-yl)methanol]",0.0001 to 10,0.0001 to 10,0.0001 to 10,0.0001 to 10
"CC1(C)CC(C(O)c2cc(Cl)cc3cn[nH]c23)C1 (centres unmarked) [Compound P-0196, (5-chloro-1H-indazol-7-yl)(3,3-dimethylcyclobutyl)methanol]",0.0001 to 10,0.0001 to 10,0.0001 to 10,0.0001 to 10
"OCC1CCC(C(O)c2cc(Cl)cc3cn[nH]c23)CC1 (centres unmarked) [Compound P-0197, (5-chloro-1H-indazol-7-yl)(4-(hydroxymethyl)cyclohexyl)methanol]",0.0001 to 10,0.0001 to 10,0.0001 to 10,0.0001 to 10
"CC(C)(C1CCN(S(C)(=O)=O)CC1)C(O)c1cc(Cl)cc2cn[nH]c12 (centres unmarked) [Compound P-0198, 1-(5-chloro-1H-indazol-7-yl)-2-methyl-2-(1-(methylsulfonyl)piperidin-4-yl)propan-1-ol]",0.0001 to 10,0.0001 to 10,0.0001 to 10,0.0001 to 10
"CC(C)(C1CCCC1)C(O)c1cc(Cl)cc2cn[nH]c12 (centres unmarked) [Compound P-0199, 1-(5-chloro-1H-indazol-7-yl)-2-cyclopentyl-2-methylpropan-1-ol]",0.0001 to 10,0.0001 to 10,0.0001 to 10,0.0001 to 10
"OC1(c2cc(Cl)cc3cn[nH]c23)CC(c2ccccc2)C1 (centres unmarked) [Compound P-0201, 1-(5-chloro-1H-indazol-7-yl)-3-phenylcyclobutan-1-ol]",> 10,> 10,0.0001 to 10,0.0001 to 10

# Now from value to molecule:
IC50 [1] [µM],IC50 [2] [µM],IC50 [3] [µM],IC50 [4] [µM],SMILES
0.0001 to 10,0.0001 to 10,0.0001 to 10,0.0001 to 10,"CC(C)(C1CCN(C(=O)Nc2ccccc2F)CC1)C(O)c1cc(Cl)cc2cn[nH]c12 (centres unmarked) [Compound P-0178, 4-(1-(5-chloro-1H-indazol-7-yl)-1-hydroxy-2-methylpropan-2-yl)-N-(2-fluorophenyl)piperidine-1-carboxamide]"
0.0001 to 10,0.0001 to 10,0.0001 to 10,0.0001 to 10,"COc1ccccc1NC(=O)N1CCC(C(C)(C)C(O)c2cc(Cl)cc3cn[nH]c23)CC1 (centres unmarked) [Compound P-0179, 4-(1-(5-chloro-1H-indazol-7-yl)-1-hydroxy-2-methylpropan-2-yl)-N-(2-methoxyphenyl)piperidine-1-carboxamide]"
0.0001 to 10,0.0001 to 10,0.0001 to 10,0.0001 to 10,"CC(C)(C1CCN(C(=O)Nc2ccccc2C#N)CC1)C(O)c1cc(Cl)cc2cn[nH]c12 (centres unmarked) [Compound P-0180, 4-(1-(5-chloro-1H-indazol-7-yl)-1-hydroxy-2-methylpropan-2-yl)-N-(2-cyanophenyl)piperidine-1-carboxamide]"
0.0001 to 10,0.0001 to 10,0.0001 to 10,0.0001 to 10,"Cc1cccc(NC(=O)N2CCC(C(C)(C)C(O)c3cc(Cl)cc4cn[nH]c34)CC2)c1 (centres unmarked) [Compound P-0181, 4-(1-(5-chloro-1H-indazol-7-yl)-1-hydroxy-2-methylpropan-2-yl)-N-(m-tolyl)piperidine-1-carboxamide]"
0.0001 to 10,0.0001 to 10,0.0001 to 10,0.0001 to 10,"COc1cccc(NC(=O)N2CCC(C(C)(C)C(O)c3cc(Cl)cc4cn[nH]c34)CC2)c1 (centres unmarked) [Compound P-0182, 4-(1-(5-chloro-1H-indazol-7-yl)-1-hydroxy-2-methylpropan-2-yl)-N-(3-methoxyphenyl)piperidine-1-carboxamide]"
0.0001 to 10,0.0001 to 10,0.0001 to 10,0.0001 to 10,"COc1ccc(NC(=O)N2CCC(C(C)(C)C(O)c3cc(Cl)cc4cn[nH]c34)CC2)cc1 (centres unmarked) [Compound P-0183, 4-(1-(5-chloro-1H-indazol-7-yl)-1-hydroxy-2-methylpropan-2-yl)-N-(4-methoxyphenyl)piperidine-1-carboxamide]"
0.0001 to 10,0.0001 to 10,0.0001 to 10,0.0001 to 10,"CC(C)(C1CCN(C(=O)Nc2ccccc2Cl)CC1)C(O)c1cc(Cl)cc2cn[nH]c12 (centres unmarked) [Compound P-0184, 4-(1-(5-chloro-1H-indazol-7-yl)-1-hydroxy-2-methylpropan-2-yl)-N-(2-chlorophenyl)piperidine-1-carboxamide]"
0.0001 to 10,0.0001 to 10,0.0001 to 10,0.0001 to 10,"O=C(NC1CC1)N1CCC(C(F)(F)C(O)c2cc(Cl)cc3cn[nH]c23)CC1 (centres unmarked) [Compound P-0185, 4-(2-(5-chloro-1H-indazol-7-yl)-1,1-difluoro-2-hydroxyethyl)-N-cyclopropylpiperidine-1-carboxamide]"
0.0001 to 10,0.0001 to 10,0.0001 to 10,0.0001 to 10,"OC(c1cc(Cl)cc2cn[nH]c12)C1(C2CCC2)CCC1 (centres unmarked) [Compound P-0186, [1,1′-bi(cyclobutan)]-1-yl(5-chloro-1H-indazol-7-yl)methanol]"
0.0001 to 10,0.0001 to 10,0.0001 to 10,0.0001 to 10,"OC(c1cc(Cl)cc2cn[nH]c12)C1(C2CCCCC2)CC1 (centres unmarked) [Compound P-0187, (5-chloro-1H-indazol-7-yl)(1-cyclohexylcyclopropyl)methanol]"
